Earlier results as cited in US9782610B2, “Nontoxic, non-endocrine disrupting, cytoprotective, UV-radiation resistant sunblock compositions” (3rd Rock Sunblock, Inc., priority 2007, dated 2017).

Legend:
estrogenic activity = details: uterine wet weight, cell height, cell proliferation assays

| SMILES | activity in cells / cancer cell growth (cancer cells) | estrogenicity (estrogenic activity) |
| --- | --- | --- |
| COc1ccc(C(=O)c2ccccc2)c(O)c1 [Benzophenone-3] | made cancer cells grow more rapidly | highly estrogenic |
| Cc1ccc(C=C2C(=O)C3(C)CCC2C3(C)C)cc1 (stereo not drawn) [Example 4-MBC, 3-(4-methylbenxylidene) camphor] | made cancer cells grow more rapidly | highly estrogenic |
| CC1CC(OC(=O)c2ccccc2O)CC(C)(C)C1 (stereo not drawn) [homosalate] | made cancer cells grow more rapidly | – |
| CCCCC(CC)COC(=O)c1ccc(N(C)C)cc1 (stereo not drawn) [octyl-dimethyl-PABA] | made cancer cells grow more rapidly | – |
